These results are taken from patent publication US9174942B2, “IDO inhibitors” (NewLink Genetics Corporation, priority 2008, dated 2015).

As usually defined, the IC50 is the concentration that gives 50% inhibition.

Counter-ions that a name gives are not always drawn.

The target of this experiment is T1, purified human IDO protein (Homo sapiens, UniProt P14902, E119G/P110S).
T1 construct: 6-Histidine tag (C); made in house; host or cells: E. coli M15(pREP4) transformed with pQE70-hIDO
T1 sequence (P14902 whole entry P110S/E119G): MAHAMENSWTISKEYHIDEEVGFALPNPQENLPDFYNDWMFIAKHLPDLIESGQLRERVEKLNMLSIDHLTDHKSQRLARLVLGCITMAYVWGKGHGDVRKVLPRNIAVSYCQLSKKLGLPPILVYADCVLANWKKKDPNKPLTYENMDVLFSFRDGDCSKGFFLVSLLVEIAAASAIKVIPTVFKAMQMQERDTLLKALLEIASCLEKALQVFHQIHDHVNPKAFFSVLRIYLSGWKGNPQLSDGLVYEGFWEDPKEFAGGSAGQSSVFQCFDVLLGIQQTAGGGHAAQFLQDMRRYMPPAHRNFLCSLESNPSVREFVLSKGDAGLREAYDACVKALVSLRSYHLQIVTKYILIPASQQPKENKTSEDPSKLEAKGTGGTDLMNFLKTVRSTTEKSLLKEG
Put plainly: Enzymatic IDO assay (kynurenine formation, absorbance at 480 nm). The format is biochemical. The conditions noted are these: recombinant human IDO, 200 μM L-tryptophan, pH 6.5; reported in ranges. As for the experimental part:
The inhibitors were initially diluted in DMSO at 100 mM and were diluted in potassium phosphate 50 mM, added to the reaction mixture at final concentrations raging from 1 mM to 5 nM and preincubated with the enzyme for 5 min at 25° C. The reaction was started by addition of L-tryptophan to 200 μM and incubated 15 min at 37° C. The reaction was stopped by addition of 0.5 vol of 30% trichloroacetic acid and incubated 30 min at 60° C. to hydrolyze N-formylkynurenine to kynurenine. The reaction was centrifuged at 3400 g for 5 min to remove precipitated protein and the supernatant was reacted with 2% (w/v) of p-dimethylaminobenzaldehyde in acetic acid. The reaction was incubated 10 min at 25° C. and read at 480 nm in a spectrophotometer. […] Nonlinear regressions and determination of the IC50 values were performed using the GraphPad Prism 4 software.
Regarding `CSc1ccccc1-c1c[nH]cn1` [Compound 1, 5-(2-(methylthio)phenyl)-1H-imidazole], the IC50 was 20 to 100 µM.

For `CC(C)(C)CCOc1cccc(O)c1-c1cnc[nH]1` [Compound 13, 3-(3,3-dimethylbutoxy)-2-(1H-imidazol-5-yl) phenol hydrochloride], the 50% inhibitory concentration (IC50) is less than 20 µM.

In the case of `Clc1ccc(COc2ccccc2-c2cnc[nH]2)cc1` [Compound 14, 5-(2-(4-chlorobenzyloxy)phenyl)-1H-imidazole], the IC50 is less than 20 µM.

As to `Clc1ccccc1CCOc1ccccc1-c1c[nH]cn1` [Compound 15, 4-(2-(2-chlorophenethoxy)phenyl)-1H-imidazole], the IC50 was less than 20 µM.

For the compound `CC(C)(CCOc1ccccc1-c1c[nH]cn1)CCOc1ccccc1-c1cnc[nH]1` [Compound 18, 5,5′-(2,2′-(3,3-dimethylpentane-1,5-diyl)bis(oxy)bis(2,1-phenylene))bis(1H-imidazole)], the IC50 was less than 20 µM.

For the compound `Oc1ccc(O)c(-c2c[nH]cn2)c1` [Compound 21, 2-(1H-imidazol-4-yl)benzene-1,4-diol], the IC50 was less than 20 µM.

Consider `Sc1ccccc1-c1c[nH]cn1` [Compound 23, 2-(1H-imidazol-5-yl) benzenethiol], for which the IC50 was less than 20 µM.

For `CC(C)(C)CCOc1c(Br)cccc1-c1c[nH]cn1` [Compound 26, 4-(3-bromo-2-(3,3-dimethylbutoxy)phenyl)-1H-imidazole], the IC50 was less than 20 µM.

`Brc1cccc(-c2cnc[nH]2)c1` [Compound 27, 5-(3-bromophenyl)-1H-imidazole]: the IC50 was less than 20 µM.

In the case of `Clc1cccc(COc2ccccc2-c2cnc[nH]2)c1` [Compound 29, 5-(2-(3-chlorobenzyloxy)phenyl)-1H-imidazole], the IC50 was less than 20 µM.

For the compound `O=C(NCc1ccccc1-c1c[nH]cn1)c1ccccc1Cl` [Compound 30, N-(2-(1H-imidazol-4-yl)benzyl)-2-chlorobenzamide], the IC50 was less than 20 µM.

`CC(C)(C)COc1ccccc1-c1c[nH]cn1` [Compound 31, 4-(2-(neopentyloxy)phenyl)-1H-imidazole]: the IC50 is less than 20 µM.

As for `CC(C)(C)CCn1cncc1-c1ccccc1` [Compound 32, 1-(3,3-dimethylbutyl)-5-phenyl-1H-imidazole], the IC50 is less than 20 µM.

For the compound `Clc1cccc(CCOc2ccccc2-c2c[nH]cn2)c1` [Compound 33, 4-(2-(3-chlorophenethoxy)phenyl)-1H-imidazole], the IC50 is less than 20 µM.

For the compound `CC(=O)Nc1ccc(CCOc2ccccc2-c2c[nH]cn2)cc1` [Compound 34, N-(4-(2-(2-(1H-imidazol-4-yl)phenoxy)ethyl)phenyl) acetamide], the IC50 was less than 20 µM.

On to `Oc1c(Br)cccc1-c1cnc[nH]1` [Compound 35, 2-bromo-6-(1H-imidazol-5-yl)phenol], for which the IC50 is less than 20 µM.

Turning to `Oc1ccc(F)cc1-c1cc[nH]n1` [Compound 36, 4-fluoro-2-(1H-pyrazol-3-yl)phenol], the IC50 is less than 20 µM.

For the compound `Cc1ccccc1COc1ccccc1-c1c[nH]cn1` [Compound 37, 4-(2-(2-methylbenzyloxy)phenyl)-1H-imidazole], the IC50 was less than 20 µM.

Consider `CNC(=O)CCC(C)(C)CCOc1ccccc1-c1c[nH]cn1` [Compound 38, 6-(2-(1H-imidazol-4-yl)phenoxy)-N,4,4-trimethylhexanamide], for which the IC50 is less than 20 µM.

`CC(=O)NC1CCC(=CCOc2ccccc2-c2c[nH]cn2)CC1` (stereo not drawn) [Compound 39, N-(4-(2-(2-(1H-imidazol-4-yl)phenoxy)ethylidene)cyclohexyl)acetamide]: the half-inhibitory concentration (IC50) is less than 20 µM.

Consider `CC(=O)Nc1cccc(CCOc2ccccc2-c2c[nH]cn2)c1` [Compound 40, N-(3-(2-(2-(1H-imidazol-4-yl)phenoxy)ethyl)phenyl) acetamide], for which the IC50 is less than 20 µM.

Take `COc1cccc(O)c1-c1c[nH]cn1` [Compound 41, 2-(1H-imidazol-4-yl)-3-methoxyphenol]: the IC50 is less than 20 µM.

For the compound `Oc1ccccc1-c1cc[nH]n1` [Compound 43, 2-(1H-pyrazol-3-yl)phenol], the IC50 was less than 20 µM.

Turning to `CNC(=O)c1ccc(CCOc2ccccc2-c2c[nH]cn2)cc1` [Compound 45, 4-(2-(2-(1H-imidazol-4-yl)phenoxy)ethyl)-N-methylbenzamide], the IC50 was less than 20 µM.

Turning to `NS(=O)(=O)c1ccc(COc2ccccc2-c2c[nH]cn2)cc1` [Compound 46, 4-((2-(1H-imidazol-4-yl)phenoxy)methyl) benzenesulfonamide], the IC50 is less than 20 µM.

Consider `Cc1cccc(COc2ccccc2-c2cnc[nH]2)c1` [Compound 48, 5-(2-(3-methylbenzyloxy)phenyl)-1H-imidazole], for which the half-maximal inhibitory concentration (IC50) is less than 20 µM.

As for `Clc1ccc(COc2ccc(Br)cc2-c2c[nH]cn2)cc1` [Compound 49, 4-(5-bromo-2-(4-chlorobenzyloxy)phenyl)-1H-imidazole], the IC50 is less than 20 µM.

Consider `CNC(=O)c1cccc(CCOc2ccccc2-c2c[nH]cn2)c1` [Compound 50, 3-(2-(2-(1H-imidazol-4-yl)phenoxy)ethyl)-N-methylbenzamide], for which the IC50 was less than 20 µM.

For the compound `Oc1cccc(Cn2cncc2-c2ccccc2)c1` [Compound 51, 3-((5-phenyl-1H-imidazol-1-yl)methyl)phenol], the IC50 is less than 20 µM.

Turning to `Clc1ccccc1Cn1cncc1-c1ccccc1` [Compound 52, 1-(2-chlorobenzyl)-5-phenyl-1H-imidazole], the IC50 is less than 20 µM.

`CC(=O)NCCC(C)(C)CCOc1ccccc1-c1c[nH]cn1` [Compound 53]: the IC50 is less than 20 µM.

Consider `Clc1ccc(Cn2cncc2-c2ccccc2)cc1` [Compound 54, 1-(4-chlorobenzyl)-5-phenyl-1H-imidazole], for which the IC50 was 20 to 100 µM.

As to `N#Cc1ccc(COc2ccccc2-c2c[nH]cn2)cc1` [Compound 55, 4-((2-(1H-imidazol-4-yl)phenoxy)methy)benzonitrile], the 50% inhibitory concentration (IC50) fell in the range of 20 to 100 µM.

With `CNC(=O)Cc1cccc(COc2ccccc2-c2c[nH]cn2)c1` [Compound 57, 2-(3-((2-(1H-imidazol-4-yl)phenoxy)methyl)phenyl)-N-methylacetamide], the half-maximal inhibitory concentration (IC50) lay within 20 to 100 µM.

Consider `Fc1cc(F)cc(-c2c[nH]cn2)c1` [Compound 59, 4-(3,5-difluorophenyl)-1H-imidazole], for which the IC50 was 20 to 100 µM.

Turning to `Clc1ccc(COc2c(Br)cccc2-c2c[nH]cn2)cc1` [Compound 60, 4-(3-bromo-2-(4-chlorobenzyloxy)phenyl)-1H-imidazole], the IC50 fell in the range of 20 to 100 µM.

On to `Clc1ccc(CCOc2ccccc2-c2c[nH]cn2)cc1` [Compound 61, 4-(2-(4-chlorophenethoxy)phenyl)-1H-imidazole], for which the IC50 lay in the range of 20 to 100 µM.

As for `Clc1ccc(CNc2ccccc2-c2c[nH]cn2)cc1` [Compound 62, N-(4-chlorobenzyl)-2-(1H-imidazol-4-yl)aniline], the IC50 was 20 to 100 µM.

As for `Oc1cc(Cl)ccc1-c1cnc[nH]1` [Compound 63, 5-chloro-2-(1H-imidazol-5-yl)phenol], the 50% inhibitory concentration (IC50) lay in the range of 20 to 100 µM.

For `c1ccc(CCCn2cncc2-c2ccccc2)cc1` [Compound 64, 5-phenyl-1-(3-phenylpropyl)-1H-imidazole], the IC50 lay within 20 to 100 µM.

Turning to `Oc1ccccc1Cn1cncc1-c1ccccc1` [Compound 65, 2-((5-phenyl-1H-imidazol-1-yl)methyl)phenol], the IC50 was in the range of 20 to 100 µM.

In the case of `Cc1ccc(COc2ccccc2-c2c[nH]cn2)cc1` [Compound 66, 4-(2-(4-methylbenzyloxy)phenyl)-1H-imidazole], the IC50 lay in the range of 20 to 100 µM.

With `COc1ccc(Cn2cncc2-c2ccccc2)cc1` [Compound 68, 1-(4-methoxybenzyl)-5-phenyl-1H-imidazole], the IC50 is 20 to 100 µM.

As to `N#Cc1cccc(Cn2cncc2-c2ccccc2)c1` [Compound 69, 3-((5-phenyl-1H-imidazol-1-yl)methyl)benzonitrile], the IC50 is 20 to 100 µM.

As for `Brc1ccc(-c2c[nH]cn2)cc1` [Compound 70, 5-(4-bromophenyl)-1H-imidazole], the IC50 lay within 20 to 100 µM.

On to `O=[N+]([O-])c1ccccc1Cn1cncc1-c1ccccc1` [Compound 71, 1-(2-nitrobenzyl)-5-phenyl-1H-imidazole], for which the IC50 lay within 20 to 100 µM.

With `Cc1ccc(Cn2cncc2-c2ccccc2)cc1` [Compound 72, 1-(4-methylbenzyl)-5-phenyl-1H-imidazole], the IC50 lay within 20 to 100 µM.

For `Oc1cccc(OCc2ccc(Cl)cc2)c1-c1cnc[nH]1` [Compound 73, 3-(4-chlorobenzyloxy)-2-(1H-imidazol-5-yl)phenol], the 50% inhibitory concentration (IC50) fell in the range of 20 to 100 µM.

For the compound `N#Cc1cccc(COc2ccccc2-c2c[nH]cn2)c1` [Compound 74, 3-((2-(1H-imidazol-4-yl)phenoxy)methyl)benzonitrile], the IC50 lay in the range of 20 to 100 µM.

As to `Clc1ccccc1COc1ccccc1-c1c[nH]cn1` [Compound 75, 4-(2-(2-chlorobenzyloxy)phenyl)-1H-imidazole], the concentration for half-maximal inhibition (IC50) lay within 20 to 100 µM.

With `c1ccc(-c2c[nH]cn2)c(OCC2CCCNC2)c1` (stereo not drawn) [Compound 76, 3-((2-(1H-imidazol-4-yl)phenoxy)methyl)piperidine], the IC50 lay within 20 to 100 µM.

As to `Cc1ccccc1Cn1cncc1-c1ccccc1` [Compound 77, 1-(2-methylbenzyl)-5-phenyl-1H-imidazole], the half-maximal inhibitory concentration (IC50) is 20 to 100 µM.

`OCc1ccccc1-c1c[nH]cn1` [Compound 78, (2-(1H-imidazol-4-yl)phenyl)methanol]: the IC50 lay within 20 to 100 µM.

In the case of `COC(=O)CCC(C)(C)CCOc1ccccc1-c1c[nH]cn1` [Compound 79, methyl 6-(2-(1H-imidazol-4-yl)phenoxy)-4,4-dimethylhexanoate], the IC50 was 20 to 100 µM.
